# According to publication PMC12102759 (Protein Science : A Publication of the Protein Society, 2025):
# Test system: G3BP1 NFT2
# Type: binding, human
# Conditions: library DMS-BM; bait G3BP1 NFT2; prey CAPRIN1; AQMQGPYNFIQDSM(averaged): mean of the two overlapping peptides over the shared positions
row,Substance,"DMS position-specific score (PSSM value) per amino-acid substitution, averaged"
1,AQMQGPYNFIQDSM(averaged) M3S (AQSQGPYNFIQDSM),0.002665
2,AQMQGPYNFIQDSM(averaged) F9V (AQMQGPYNVIQDSM),0.0005113
3,AQMQGPYNFIQDSM(averaged) Y7E (AQMQGPENFIQDSM),0.0001172
4,AQMQGPYNFIQDSM(averaged) M3D (AQDQGPYNFIQDSM),0.0976
5,AQMQGPYNFIQDSM(averaged) P6R (AQMQGRYNFIQDSM),0.01834
6,AQMQGPYNFIQDSM(averaged) A1H (HQMQGPYNFIQDSM),0.006137
7,AQMQGPYNFIQDSM(averaged) Q2N (ANMQGPYNFIQDSM),0.006268
8,AQMQGPYNFIQDSM(averaged) G5D (AQMQDPYNFIQDSM),0.001672
9,AQMQGPYNFIQDSM(averaged) P6D (AQMQGDYNFIQDSM),0.01341
10,AQMQGPYNFIQDSM(averaged) S13W (AQMQGPYNFIQDWM),0.01323
11,AQMQGPYNFIQDSM(averaged) M3N (AQNQGPYNFIQDSM),0.00226
12,AQMQGPYNFIQDSM(averaged) Y7Y,0.5479
13,AQMQGPYNFIQDSM(averaged) G5W (AQMQWPYNFIQDSM),0.033
14,AQMQGPYNFIQDSM(averaged) Q11P (AQMQGPYNFIPDSM),0
15,AQMQGPYNFIQDSM(averaged) P6G (AQMQGGYNFIQDSM),0.006371
16,AQMQGPYNFIQDSM(averaged) F9R (AQMQGPYNRIQDSM),0
17,AQMQGPYNFIQDSM(averaged) Q4H (AQMHGPYNFIQDSM),0.0707
18,AQMQGPYNFIQDSM(averaged) Y7K (AQMQGPKNFIQDSM),0
19,AQMQGPYNFIQDSM(averaged) F9H (AQMQGPYNHIQDSM),0
20,AQMQGPYNFIQDSM(averaged) A1N (NQMQGPYNFIQDSM),0.01838
21,AQMQGPYNFIQDSM(averaged) A1M (MQMQGPYNFIQDSM),0.03265
22,AQMQGPYNFIQDSM(averaged) Y7R (AQMQGPRNFIQDSM),0
23,AQMQGPYNFIQDSM(averaged) Q2M (AMMQGPYNFIQDSM),0.123
24,AQMQGPYNFIQDSM(averaged) Q2A (AAMQGPYNFIQDSM),0.04422

row,Substance,"DMS position-specific score (PSSM value) per amino-acid substitution, averaged"
1,AQMQGPYNFIQDSM(averaged) A1T (TQMQGPYNFIQDSM),0.005821
2,AQMQGPYNFIQDSM(averaged) Q2W (AWMQGPYNFIQDSM),0.05769
3,AQMQGPYNFIQDSM(averaged) D12K (AQMQGPYNFIQKSM),0.003093
4,AQMQGPYNFIQDSM(averaged) S13K (AQMQGPYNFIQDKM),0
5,AQMQGPYNFIQDSM(averaged) Q11N (AQMQGPYNFINDSM),0.05691
6,AQMQGPYNFIQDSM(averaged) S13I (AQMQGPYNFIQDIM),0.01393
7,AQMQGPYNFIQDSM(averaged) I10G (AQMQGPYNFGQDSM),0.004165
8,AQMQGPYNFIQDSM(averaged) Y7G (AQMQGPGNFIQDSM),0.05778
9,AQMQGPYNFIQDSM(averaged) P6A (AQMQGAYNFIQDSM),0.08584
10,AQMQGPYNFIQDSM(averaged) Q2Y (AYMQGPYNFIQDSM),0.05198
11,AQMQGPYNFIQDSM(averaged) N8H (AQMQGPYHFIQDSM),0.02395
12,AQMQGPYNFIQDSM(averaged) N8M (AQMQGPYMFIQDSM),0.01948
13,AQMQGPYNFIQDSM(averaged) P6Q (AQMQGQYNFIQDSM),0.00431
14,AQMQGPYNFIQDSM(averaged) Q4G (AQMGGPYNFIQDSM),0.08843
15,AQMQGPYNFIQDSM(averaged) I10T (AQMQGPYNFTQDSM),0.01974
16,AQMQGPYNFIQDSM(averaged) F9I (AQMQGPYNIIQDSM),0
17,AQMQGPYNFIQDSM(averaged) A1R (RQMQGPYNFIQDSM),0.004419
18,AQMQGPYNFIQDSM(averaged) I10Q (AQMQGPYNFQQDSM),0.01591
19,AQMQGPYNFIQDSM(averaged) N8K (AQMQGPYKFIQDSM),0.007096
20,AQMQGPYNFIQDSM(averaged) Y7W (AQMQGPWNFIQDSM),0.03599
21,AQMQGPYNFIQDSM(averaged) I10H (AQMQGPYNFHQDSM),0.003149
22,AQMQGPYNFIQDSM(averaged) M14F (AQMQGPYNFIQDSF),0.1772
23,AQMQGPYNFIQDSM(averaged) G5E (AQMQEPYNFIQDSM),0.000605
24,AQMQGPYNFIQDSM(averaged) D12N (AQMQGPYNFIQNSM),0.03064

row,Substance,"DMS position-specific score (PSSM value) per amino-acid substitution, averaged"
1,AQMQGPYNFIQDSM(averaged) F9K (AQMQGPYNKIQDSM),0
2,AQMQGPYNFIQDSM(averaged) Y7N (AQMQGPNNFIQDSM),0
3,AQMQGPYNFIQDSM(averaged) Q4D (AQMDGPYNFIQDSM),0.3261
4,AQMQGPYNFIQDSM(averaged) M3F (AQFQGPYNFIQDSM),0.0581
5,AQMQGPYNFIQDSM(averaged) M3L (AQLQGPYNFIQDSM),0.03704
6,AQMQGPYNFIQDSM(averaged) M3I (AQIQGPYNFIQDSM),0.03359
7,AQMQGPYNFIQDSM(averaged) D12A (AQMQGPYNFIQASM),0.09226
8,AQMQGPYNFIQDSM(averaged) S13P (AQMQGPYNFIQDPM),0
9,AQMQGPYNFIQDSM(averaged) G5L (AQMQLPYNFIQDSM),0.1936
10,AQMQGPYNFIQDSM(averaged) M14P (AQMQGPYNFIQDSP),0
11,AQMQGPYNFIQDSM(averaged) M14H (AQMQGPYNFIQDSH),0.004419
12,AQMQGPYNFIQDSM(averaged) A1V (VQMQGPYNFIQDSM),0.05956
13,AQMQGPYNFIQDSM(averaged) N8S (AQMQGPYSFIQDSM),0.04423
14,AQMQGPYNFIQDSM(averaged) S13F (AQMQGPYNFIQDFM),0.05713
15,AQMQGPYNFIQDSM(averaged) M14N (AQMQGPYNFIQDSN),0.007055
16,AQMQGPYNFIQDSM(averaged) G5H (AQMQHPYNFIQDSM),0.006873
17,AQMQGPYNFIQDSM(averaged) M14R (AQMQGPYNFIQDSR),0.003652
18,AQMQGPYNFIQDSM(averaged) Q2T (ATMQGPYNFIQDSM),0.03322
19,AQMQGPYNFIQDSM(averaged) A1L (LQMQGPYNFIQDSM),0.06855
20,AQMQGPYNFIQDSM(averaged) I10S (AQMQGPYNFSQDSM),0.0008082
21,AQMQGPYNFIQDSM(averaged) M3E (AQEQGPYNFIQDSM),0.03003
22,AQMQGPYNFIQDSM(averaged) I10M (AQMQGPYNFMQDSM),0.03721
23,AQMQGPYNFIQDSM(averaged) I10F (AQMQGPYNFFQDSM),0.1045
24,AQMQGPYNFIQDSM(averaged) Y7Q (AQMQGPQNFIQDSM),0.001996
